Drawing on patent publication US9518041B2, “(+)-5-(3,4-difluorophenyl)-5-[(3-methyl-2-oxopyridin-1(2H)-yl)methyl]imidazolidine-2,4-dione and drug containing same” (KAKEN PHARMACEUTICAL CO., LTD., priority 2013, dated 2016), this text covers solubility for one compound.

In brackets after ≈: the same amount, converted by molar mass. Like-named read-outs stand apart in the source and are kept apart here.

The nature of data set [1]: Solubility test in the 2nd fluid for the disintegration test of the Japanese Pharmacopoeia. Format: physicochemical. As to conditions: pH 6.8, aqueous buffer, thermodynamic from solid; pH6.8, shaken for 2 hours. On the procedure: Test substances (10.0 mg) were correctly weighed, and methanol was added to adjust to 10 mL. The solution was diluted by 10 times to prepare a solution of […].
In a centrifuge tube 5.0 mg of the test substance was weighed, added with 5.0 mL of the 2nd fluid for the disintegration test of the Japanese pharmacopoeia, supersonified for 3 minutes, and shaken for 2 hours thereafter. This solution was filitered with a membrane filter (0.2 μm), 500 μL the filtrate was measured, 500 μL of acetonitrile was added, and fully stirred to obtain the sample solution.
To 250 mL of 0.2 mol/L potassium dihydrogenphosphate aqueous solution, 118 mL of 0.2 mol/L sodium hydroxide aqueous solution and water was added to adjust to 1000 mL.
Using a high performance liquid chromatography, each of the sample solution for a calibration curve and sample solution for solubility measurement is measured twice to calculate an average area for each.
Based on the average area obtained in the above mentioned method, using an equation below to calculate a solubility. Solubility in the 2nd fluid for the disintegration test of the Japanese pharmacopoeia(μg/mL)=((P×2)/S)×100
S: Average area on the sample solution for a calibration curve
P: Average area on the sample solution for solubility measurement

Data set [2] can be described thus: Solubility test in organic solvents (propylene glycol, butylene glycol). Format: physicochemical. As to conditions: organic solvent or mixture, thermodynamic from solid, visual observation after 24 hours at room temperature. On the procedure: Under room temperature conditions, in a 0.5 mL polypropylene tube, (+)-5-(3,4-difluorophenyl)-5-[(3-methyl-2-oxopyridin-1(2H)-yl)methyl]imidazolidine-2,4-dione and (±)-5-(3,4-difluorophenyl)-5-[(3-methyl-2-oxopyridin-1(2H)-yl)methyl]imidazolidine-2,4-dione measured in advance for a suitable amount were prepared, respectively. In each tube, solvent (Propylene glycol (PG) or butylene glycol (BG)) was added with various amounts, e.g. 10 times, 20 times or 100 times amount of the test compound, and stirred with a vortex mixer. With a table ultrasonic washer set at 37° C., ultrasonication treatment was given for 10 minutes; after warming for an hour in a thermostat chamber, each were kept standing for 24 hours at room temperature. The test solutions were observed by sight to evaluate the states in accordance with the determination criterion given below.
Determination criterion consisted of the following two categories:
“Soluble”: Test compound dissolved; no undissolved substances confirmed by visual observation.
“Insoluble”: Test compound remains undissolved; undissolved substances confirmed by visual observation.

What is called solubility is the dissolved amount per volume that the medium holds. In data set [1], `Cc1cccn(CC2(c3ccc(F)c(F)c3)NC(=O)NC2=O)c1=O` (racemic) [(±)-5-(3,4-difluorophenyl)-5-[(3-methyl-2-oxopyridin-1(2H)-yl)methyl]imidazolidine-2,4-dione] showed a solubility at 2 h of 45 µg/mL (≈ 0.135 mM). The solubility at 24 h was less than 50000 µg/mL in data set [2] (BG, 20 times amount of the test compound, read-out: Solubility in butylene glycol (BG), 20 times amount); greater than 10000 µg/mL in data set [2] (BG, 100 times amount of the test compound, read-out: Solubility in butylene glycol (BG), 100 times amount); less than 50000 µg/mL in data set [2] (PG, 10 times amount of the test compound, read-out: Solubility in propylene glycol (PG), 10 times amount); less than 50000 µg/mL in data set [2] (PG, 20 times amount of the test compound, read-out: Solubility in propylene glycol (PG), 20 times amount); greater than 10000 µg/mL in data set [2] (PG, 100 times amount of the test compound, read-out: Solubility in propylene glycol (PG), 100 times amount).
